This note sets out measurements from US8158621B2, “Methods of treating or preventing autoimmune diseases with 2,4-pyrimidinediamine compounds” (Rigel Pharmaceuticals, Inc., priority 2002, dated 2012).

What all share (assay type): cell-based
The test system of experiment [1] is cultured human mast cells (CHMC). The experiment in a line: CHMC low cell density ionomycin activation: tryptase assay.
The test system is the same in experiment [2]. The experiment in a line: CHMC low cell density IgE activation: tryptase assay. As for the experimental part: Pellet CHMC cells (980 rpm, 10 min) and resuspend in pre-warmed MT. Add 65 ul of cells to each 96-well plate. Depending on the degranulation activity for each particular CHMC donor, load 1000-1500 cells/well. Mix four times followed by a 1 hr incubation at 37° C. […] Stimulate cells by adding 25 ul of 6× anti-IgE solution to the appropriate plates. Add 25 ul MT to un-stimulated control wells. Mix twice following addition of the anti-IgE. Incubate at 37° C. for 30 minutes. […] Spin plates at 1000 rpm for 10 min to pellet cells. Transfer 25 ul of supernatant to a 96-well black bottom plate and add 100 ul of freshly diluted tryptase substrate solution to each well. Incubate plates at room temperature for 30 min.

Experiment [3] concerns Human Jurkat T-cells (clone N). The experiment in a line: Jurkat T-cell activation (anti-TCR, CD69 upregulation). The procedure, abridged: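 Jurkat cells in RPMI + 5% FBS preincubated with compound 1 h at 37 °C, then stimulated with anti-TCR C305 at 500 ng/ml for 20 h. CD69 surface expression stained with anti-CD69-APC and read by flow cytometry; IC50 versus solvent-only control.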

Setting [4] is: low cell density, read-out: CHMC Ionomycin Tryptase.
Where [5] appears, read: low cell density, read-out: CHMC anti-IgE Tryptase.
Where [6] appears, read: Homo sapiens, Mast cell, Low Density, read-out: CHMC anti-IgE Tryptase.
Where [7] appears, read: Low Density, read-out: CHMC Ionomycin Tryptase.

Read-outs that look alike come from different tables or passages of the source. Some results are limits rather than exact numbers.

For `Cc1cc(C)cc(Nc2ncc(F)c(Nc3ccc4c(c3)NC(C)(C)CO4)n2)c1` [Compound R908586], the IC50 in experiment [1] (setting [4]) is more than 10 µM. In the case of `CNC(=O)COc1cccc(Nc2ncc(F)c(Nc3ccc4c(c3)[C@@H](N)CCO4)n2)c1` [Compound R950420], the figures for the IC50 in experiment [2] (setting [5]) and in experiment [1] (setting [4]) were 0.114 µM and more than 10 µM, respectively. Taken in the same sequence, the figures for `Cn1ncc2ccc(Nc3ncc(F)c(Nc4ccc5c(c4)OCCO5)n3)cc21` [Compound R935392] were 0.204 µM and more than 10 µM. Taken in the same sequence, the figures for `CNC(=O)COc1cccc(Nc2ncc(F)c(Nc3ccc4c(c3)C(N(C)C(=O)CN(C)C)CCO4)n2)c1` (racemic) [Compound R950419] were 3.26 µM and more than 10 µM. The like results for `CNC(=O)COc1cccc(Nc2ncc(F)c(Nc3ccc4c(c3)C(=O)NC(=O)C4(C)C)n2)c1` [Compound R909318] were, in that order, 1.02 µM and more than 10 µM. Take `COc1cc(Nc2ncc(F)c(Nc3ccc4c(c3)C(=O)NC(=O)C4(C)C)n2)cc(OC)c1` [Compound R909323]: the IC50 in experiment [2] (setting [5]) and in experiment [1] (setting [4]) was more than 10 µM throughout.

For `CC1(C)Oc2ccc(Nc3nc(Nc4ccc5cn[nH]c5c4)ncc3F)cc2NC1=O` [Compound R935430], the IC50 in experiment [1] (setting [4]) was found to be 9.3 µM. Take `O=C(COc1cccc(Nc2ncc(F)c(NC3CC3)n2)c1)NC1CC1` [Compound R945363]: the IC50 was 0.687 µM in experiment [2] (setting [5]) and more than 10 µM in experiment [1] (setting [4]).

With `COc1ccc(Nc2ncc(F)c(Nc3ccc4c(c3)NC(=O)C(C)(C)O4)n2)cc1Cl` [Compound R927097], the IC50 in experiment [2] (setting [5]) is 0.163 µM; in experiment [1] (setting [4]) it was 0.847 µM.

`CNC(=O)COc1cccc(Nc2ncc(F)c(Nc3cccc(NC(C)=O)n3)n2)c1` [Compound R927093]: the results for the IC50 in experiment [2] (setting [5]) and in experiment [1] (setting [4]) were 0.303 µM and more than 10 µM, respectively. Taken in the same sequence, the figures for `COc1ccc(Nc2nc(Nc3cccc(OCC(=O)NC4CCC4)c3)ncc2F)cc1Cl` [Compound R926969] were 0.359 µM and more than 10 µM. The like results for `CC1(C)Oc2ccc(Nc3ncc(F)c(Nc4ccc5cn[nH]c5c4)n3)cc2NC1=O` [Compound R935440] were, in that order, 0.176 µM and 88 µM. Taken in the same sequence, the figures for `CC(C)Oc1ccc(Nc2nc(Nc3ccc4c(c3)C[C@H](C(=O)O[C@@H]3C[C@H](C)CC[C@H]3C(C)C)O4)ncc2F)cc1` [Compound R927062] were 15.4 µM and more than 10 µM.

Take `COC1=CC=C(Nc2nc(Cl)ncc2F)CC1=CN(C(=O)OC(C)(C)C)C(C)C` [Compound R940320]: the IC50 is more than 10 µM in experiment [2] (setting [6]) and 7.82 µM in experiment [3] (Homo sapiens, Jurkat). As to `NC1CCCCC1Nc1ncc(F)c(Nc2ccc3c(c2)NC(=O)C(CCO)O3)n1` (centres unmarked) [Compound R950443], the IC50 in experiment [2] (setting [5]) and in experiment [1] (setting [4]) was more than 10 µM throughout. For `CCN(CC)CCCNc1ncc(F)c(Nc2ccc3c(c2)NC(=O)[C@H](C)O3)n1` [Compound R950471], the IC50 in experiment [2] (setting [5]) was 50.5 µM; in experiment [1] (setting [4]), more than 10 µM. Turning to `O=C(NNc1nc(Nc2ccc3c(c2)OCCO3)ncc1F)c1ccc2c(c1)OCO2` [Compound R926406], the IC50 is more than 10 µM in experiment [2] (Low Density CHMC, anti-IgE activation, tryptase release, read-out: CHMC anti-IgE Tryptase IC50) and more than 10 µM in experiment [1] (Low Density CHMC, ionomycin activation, tryptase release, read-out: CHMC Ionomycin Tryptase IC50). With `CCN(CC)CCNC(=O)c1ccc(Nc2ncc(F)c(Nc3ccc4c(c3)NC(=O)C(CCO)O4)n2)cc1` (racemic) [Compound R950448], the figures for the IC50 in experiment [2] (setting [5]) and in experiment [1] (setting [4]) were 1.08 µM and 36 µM, respectively. Taken in the same sequence, the figures for `CC(C)[C@@H]1CC[C@@H](C)C[C@H]1OC(=O)[C@H]1Cc2cc(Nc3ncc(F)c(Nc4ccc5c(c4)NC(=O)C(F)(F)O5)n3)ccc2O1` [Compound R927063] were 0.849 µM and more than 10 µM. Taken in the same sequence, the figures for `Cc1cccc(C)c1Nc1ncc(F)c(Nc2ccc3cc[nH]c3c2)n1` [Compound R927088] were 0.117 µM and more than 10 µM. The like results for `CNC(=O)n1ccc2ccc(Nc3ncc(F)c(Nc4ccc(OC)c(Cl)c4)n3)cc21` [Compound R927094] were, in that order, more than 10 µM and more than 10 µM. As to `COc1c(Cl)cc(Nc2ncc(F)c(Nc3ccc4c(c3)NC(=O)[C@H](C)O4)n2)cc1Cl` [Compound R908946], the IC50 in experiment [2] (setting [5]) was 0.51 µM; in experiment [1] (setting [4]) it was more than 10 µM. Consider `Cc1cc(C)cc(Nc2ncc(F)c(Nc3ccc4c(c3)NC(=O)C(C)(C)O4)n2)c1` [Compound R927075], for which the IC50 in experiment [1] (setting [4]) worked out at 15.2 µM.

As for `O=C(N[C@H]1CCOc2ccc(Nc3nc(Cl)ncc3F)cc21)OCc1ccccc1` [Compound R950413], the IC50 in experiment [2] (setting [5]) and in experiment [1] (setting [4]) was more than 10 µM in each case. Turning to `Fc1cnc(Nc2ccc(Cl)c(Cl)c2)nc1NC1CCC1` [Compound R945394], the IC50 in experiment [2] (setting [5]) came out at 1.24 µM; in experiment [1] (setting [4]), 5.61 µM. Taken in the same sequence, the figures for `COc1ccc(Nc2nc(Nc3ccc4cn[nH]c4c3)ncc2F)cc1Cl` [Compound R935408] were 0.137 µM and 9.94 µM. Taken in the same sequence, the figures for `O=C(COc1cccc(Nc2ncc(F)c(Nc3ccc(N4CCOCC4)cc3)n2)c1)NC1CCC1` [Compound R945362] were 1.57 µM and more than 10 µM. The like results for `COC(=O)COc1cccc(Nc2ncc(F)c(Nc3ccc(N4CCOCC4)cc3)n2)c1` [Compound R945361] were, in that order, 2.36 µM and more than 10 µM. Take `COc1cc(Nc2ncc(F)c(Nc3cccc(NC(C)=O)n3)n2)cc(OC)c1` [Compound R927096]: the IC50 in experiment [2] (setting [5]) was 0.402 µM; in experiment [1] (setting [4]), more than 10 µM. The like results for `O=C(COc1cccc(Nc2ncc(F)c(NC3CC3)n2)c1)Nc1ccc(N2CCOCC2)cc1` [Compound R945365] were, in that order, 0.257 µM and more than 10 µM. For the molecule `Cc1cccc(C)c1Nc1ncc(F)c(Nc2ccc3c(c2)OCCO3)n1` [Compound R927086], the IC50 was 0.286 µM in experiment [2] (setting [5]) and more than 10 µM in experiment [1] (setting [4]).

For `O=C1COc2ccc(Nc3nc(Nc4ccc5cc[nH]c5c4)ncc3F)nc2N1` [Compound R945443], the IC50 was 0.081 µM in experiment [2] (setting [5]) and more than 10 µM in experiment [1] (setting [4]). Consider `CNC(=O)Nc1cccc(Nc2nc(Nc3cc(C)cc(C)c3)ncc2F)n1` [Compound R927098], for which the figures for the IC50 in experiment [2] (setting [5]) and in experiment [1] (setting [4]) were 1.53 µM and more than 10 µM, respectively. `Fc1ccc(Nc2nc(Cl)ncc2F)cc1F` [Compound R926882]: the IC50 was more than 10 µM in experiment [2] (setting [6]) and 9.05 µM in experiment [3] (Homo sapiens, Jurkat). Taken in the same sequence, the figures for `COc1ccc(Nc2nc(Cl)ncc2F)cn1` [Compound R926878] were more than 10 µM and more than 10 µM. Taken in the same sequence, the figures for `Fc1cnc(Cl)nc1Nc1ccc(OC(F)(F)F)cc1` [Compound R926875] were more than 10 µM and more than 10 µM. For `CCOC(=O)C=C1NN=C(c2cccc(Nc3nc(Cl)ncc3F)c2)O1` [Compound R926873], the IC50 in experiment [2] (setting [6]) was more than 10 µM; in experiment [3] (Homo sapiens, Jurkat), more than 10 µM. With `COc1cc(Nc2ncc(F)c(Nc3ccc4c(c3)NC(=O)[C@@H](C)O4)n2)cc(OC)c1` [Compound R908954], the IC50 in experiment [1] (setting [4]) was more than 10 µM. Take `CNC(=O)COc1cccc(Nc2ncc(F)c(Nc3ccc4c(c3)NC(=O)C(C)(C(=O)NC)O4)n2)c1` (racemic) [Compound R940365]: the IC50 in experiment [1] (setting [4]) is more than 10 µM. `CC1(C)C(=O)NC(=O)c2cc(Nc3nc(Nc4ccc(C(N)=O)cc4)ncc3F)ccc21` [Compound R950453]: the IC50 in experiment [1] (setting [4]) was more than 10 µM. On the same count and under the same terms, the value for `O=C1COc2ccc(Nc3nc(Nc4cccc(Br)c4)ncc3F)nc2N1` [Compound R945455] was more than 10 µM.

With `COc1ccc(Nc2nc(Nc3ccc4c(cnn4C)c3)ncc2F)cc1Cl` [Compound R935458], the IC50 in experiment [1] (setting [4]) is more than 10 µM.

On to `COC(=O)c1cc(Nc2nc(Nc3ccc(OC(C)C)cc3)ncc2F)cn1C` [Compound R935165], for which the IC50 in experiment [3] and in experiment [1] (setting [7]) was more than 10 µM throughout. `CN1C=COc2ccc(Nc3nc(Nc4cccc(O)c4)ncc3F)cc21` [Compound R908710]: the IC50 in experiment [2] (Low Density, read-out: CHMC anti-IgE Tryptase) was 1.84 µM; in experiment [3], 4.28 µM. As for `Fc1cnc(Cl)nc1Nc1ccc(C(F)(F)F)cc1` [Compound R926876], the IC50 was more than 10 µM in experiment [2] (setting [6]) and more than 10 µM in experiment [3] (Homo sapiens, Jurkat). With `Fc1cnc(Cl)nc1Nc1ccc(Cl)c(C(F)(F)F)c1` [Compound R926877], the IC50 in experiment [2] (setting [6]) is more than 10 µM; in experiment [3] (Homo sapiens, Jurkat), more than 10 µM. As to `Fc1cnc(Cl)nc1Nc1ccc(Cl)c(Cl)c1` [Compound R926884], the IC50 in experiment [2] (setting [6]) is more than 10 µM; in experiment [3] (Homo sapiens, Jurkat) it was more than 10 µM. As to `COc1ccc(Nc2ncc(F)c(Nc3ccc4c(c3)NC(C)(C)CO4)n2)cc1Cl` [Compound R908587], the IC50 in experiment [1] (setting [4]) was more than 10 µM. On the same count and under the same terms, the value for `CNC(=O)COc1cccc(Nc2ncc(F)c(Nc3ccc4c(c3)[C@H](N)CCO4)n2)c1` [Compound R950421] was more than 10 µM.

As for `Cc1cc(Nc2nc(Nc3cccc(OCCN4CCOCC4)c3)ncc2F)cc(Cl)c1O` [Compound R940269], the IC50 in experiment [3] is 1.9 µM; in experiment [1] (setting [7]), more than 10 µM.

`Oc1cccc(Nc2ncc(F)c(Nc3ccc4c(c3)OCCO4)n2)c1` [Compound R925796]: the IC50 in experiment [2] (Homo sapiens, Mast cell, Low Density CHMC, anti-IgE activation, tryptase release, read-out: CHMC anti-IgE Tryptase IC50) was determined as 2 µM; in experiment [3] (Homo sapiens, Jurkat), 1.83 µM.
